Where “and” joins values, the source holds several entries; their conditions need not be identical. Identical values can stand only once. Entries after “also recorded” stand apart in the source; their conditions may differ.
How the values were obtained:
[1] = tested on: New Zealand White rabbits; assay: Mortality/morbidity in New Zealand White rabbits, topical dosing four times daily; format: in vivo
Procedure: (§1) On Days 1-31, animals received daily topical doses of the appropriate test article into the right eye. Animals were dosed four times per day, with doses administered 2 hours apart. Doses were administered using a calibrated 50-μL pipette. The eyelids were held close for 10 seconds immediately following dosing. The time of each dose administration was recorded.
Animals determined to be moribund were euthanized with an intravenous injection of commercial euthanasia solution.

[2] = tested on: iris and conjunctival vessels, anterior chamber; assay: Clinical evaluation by slit lamp (clinical score), rabbit paracentesis model; format: in vivo, Rabbit (New Zealand); set-up: key to Clinical Score −180 min / Clinical Score −5 min / Clinical Score +115 min: 0=normal; 1=discrete dilatation of iris and conjunctival vessels; 2=moderate dilatation of iris and conjunctival vessels; 3=intense iridal hyperemia with flare in the anterior chamber; 4=intense iridal hyperemia with flare in the anterior chamber and presence of fibrinous exudates; conditions: for Clinical Score −5 min: 5 min before the first paracentesis; for Clinical Score −5 min / Clinical Score +115 min / Clinical Score −180 min: raw data per eye; for Clinical Score +115 min: 5 min before the second paracentesis; for Clinical Score −180 min: basal
pupillary diameter = assay: Pupillary diameter measurement, rabbit paracentesis model; format: in vivo, Rabbit (New Zealand); conditions: for Pupillary diameter T2: −5 min: 5 min before the first paracentesis; for Pupillary diameter T2: −5 min / Pupillary diameter T3: +115 min / Pupillary diameter T1: −180 min: raw data per eye; for Pupillary diameter T3: +115 min: 5 min before the second paracentesis; for Pupillary diameter T1: −180 min: basal; for Mean (mm) Δ(T3 − T1) of pupillary diameter: group mean, n=8 eyes
rabbit eyes = assay: Ophthalmic observations (slit lamp, McDonald Shadduck scores) in New Zealand White rabbits; format: in vivo; set-up: key to Ophthalmic Observation (Slit-Lamp): AN = Appeared normal
Procedure: Prior to placement on study, each animal underwent a pre-treatment ophthalmic examination (slit lamp and indirect ophthalmoscopy). Observations were scored according to the McDonald Shadduck system and recorded using a standardized data collection sheet.
as §1
Ophthalmic examinations (slit lamp) were performed prior to the first dosing on Days 5, 12, 22, 26, and 33. Ocular findings were scored according to the McDonald Shadduck system and recorded using a standardized data collection sheet.

[3] = tested on: MPO activity in iris-ciliary body; assay: Myeloperoxidase (MPO) activity in iris-ciliary body, rabbit paracentesis model; format: in vivo, Rabbit (New Zealand); conditions: for MPO activity in iris-ciliary body: individual samples collected after the second paracentesis; for MPO activity in iris-ciliary body, Mean: after the second paracentesis, group mean
Procedure: (§2) Each rabbit was placed in a restraint device and tagged with the alphanumeric code. The formulations were instilled (50 μl) into the conjunctival sac of both eyes 180, 120, 90 and 30 min before the first paracentesis; then 15, 30, 90 min after the first paracentesis. To perform the first paracentesis the animals were anaesthetized by intravenous injection of 5 mg/kg Zoletil® (Virbac; 2.5 mg/kg tiletamine HCl and 2.5 mg/kg zolazepam HCl) and one drop of local anesthetic (Novesina®, Novartis) was administered to the eye. Anterior chamber paracentesis was performed with a 26 G needle attached to a tuberculin syringe; the needle was introduced into the anterior chamber through the cornea, taking care not to damage the tissues. Two hours after the first paracentesis, the animals were sacrificed with 0.4 ml Tanax® (Intervet International B.V.) and the second paracentesis was performed. About 100 μl of aqueous humor were removed at the second paracentesis. Aqueous humor was immediately split in four aliquots and stored at −80° C. until analysis. Then both eyes were enucleated and the iris-ciliary body was carefully excised, placed in polypropylene tubes, and stored at −80° C. until analysis.
The activity of MPO was measured as previously described by Williams et al.[5] The iris-ciliary bodies were carefully dried, weighed and immersed in 1 ml of hexa-decyl-trimethyl-ammonium bromide solution. Then, the samples were sonicated for 10 sec on ice by a ultrasound homogenizer (HD 2070, Bandelin electronic), freeze-thawed three times, sonicated for 10 sec and centrifuged at 14,000 g for 10 min to remove cellular debris. An aliquot of the supernatant (40-200 μl) was diluted to 3 ml with the o-dianisidine 2HCl/H2O2 solution. The change in absorbance at 460 nm was continuously monitored for 5 min by a spectrophotometer (UV/Vis Spectrometer Lambda EZ 201; Perkin Elmer). The slope of the line (Δ/min) was determined for each sample and used to calculate the number of units of MPO in the tissue as follows:
Values were expressed as units of MPO/g of tissue.
(§3) Pupillary diameter, PGE2, protein, PMN, and MPO were expressed as mean±SEM. Statistical analysis was performed using one way ANOVA followed by a Newman-Keuls post hoc test. Clinical score was expressed as % of eyes and the statistical analysis was performed using Kruskal-Wallis followed by a Dunn post hoc test. P<0.05 was considered statistically significant in both cases. Prism 4 software (GraphPad Software, Inc.) was used for the analysis and graphs.

[4] = tested on: intraocular pressure (IOP); assay: Intraocular pressure in New Zealand White rabbits, topical dosing four times daily; format: in vivo
Procedure: as §1
Intraocular pressure (“IOP”) was determined for both eyes of each animal on Days 3, 5, 10, 12, 16, 18, 22, 24, 26, 30, and 32. IOP was evaluated with a Medtronic Solan, Model 30 classic pneumatonometer. Proparacaine hydrochloride 0.5% (1 drop) was delivered to each eye prior to IOP measurement. IOP was measured on Monday. Wednesday, and Friday of each week. A two-point diurnal curve was established: IOP was recorded at 8 a.m. and 12 p.m. on Day 3, and at 8 a.m. and 2 p.m. on later days, with a ±1 hour range for each of these times. The time of the measurements was recorded.
Descriptive statistics were prepared for IOP data of each treatment group (left and right eyes separately) at each measurement interval. The statistics included the number of observations (“N”) mean, standard deviation (“STD”), and standard error (“SEM”). Statistical analyses were conducted on IOP results using Statistical Analysis Systems (SAS Institute. Inc., Cary, N.C. V8.0). Parameters were evaluated using analysis of variance/GLM Procedure followed by Tukey's Standardized Range Test (Tukey, 1985) for post hoc comparisons of group means. The level of significance was set at a probability of p<0.05 for all statistical procedures. Group IOP means were compared at each interval, with left and right eyes compared separately.

[5] = tested on: PGE2 in the aqueous humor; assay: Prostaglandin E2 (PGE2) measurement in aqueous humor, rabbit paracentesis model; format: in vivo, Rabbit (New Zealand); conditions: for PGE2 level in aqueous humor, Mean: second paracentesis, group mean
Procedure: as §2
For the quantitative determination of PGE2 in the aqueous humor we used the PGE2 Immunoassay kit (R&D Systems; Cat. No. KGE004; Lot. No. 240010). Eleven microliters or 16 μl of aqueous humor were diluted to 110 μl or 160 μl with the calibrator diluent solution provided with the kit. One hundred microliters of samples and of standards were load into a 96-well plate and recorded in a plate layout. Samples were treated following the assay procedure described in the kit. A microplate reader (GDV, Italy; model DV 990 B/V6) set at 450 nm (wavelength correction at 540 nm) was used for making the calibration and analyzing the samples.
as §3

[6] = tested on: protein concentration in the aqueous humor; assay: Protein measurement in aqueous humor, rabbit paracentesis model; format: in vivo, Rabbit (New Zealand); conditions: for Protein level in aqueous humor, Mean / Protein level in aqueous humor, raw data: second paracentesis; for Protein level in aqueous humor, Mean: group mean; for Protein level in aqueous humor, raw data: per eye
Procedure: as §2
For protein concentration determination in the aqueous humor we used the Protein Quantification Kit (Fluka; Cat. No. 77371; Lot. No. 1303129). Five microliters of aqueous humor were diluted to 100 μl with water. Twenty microliters of samples and of standards were load into a 96-well plate and recorded in a plate layout. Samples were treated following the assay procedure described in the kit. A microplate reader (GDV, Italy; model DV 990 B/V6) set at 670 nm was used for making the calibration and analyzing the samples.
as §3

[7] = Group A, 0.1% (0.05 mg/dose) 4 x daily, individual rabbits
[8] = 0.1% formulation, +115 min, N=8 eyes
[9] = 0.1% formulation, −5 min, N=8 eyes
[10] = Group A, 0.1%, treated right eye, individual animals

## C[C@@H]1C[C@H]2[C@@H]3CCC4=CC(=O)C=C[C@]4(C)[C@@]3(F)[C@@H](O)C[C@]2(C)[C@@]1(O)C(=O)CO [Dex, dexamethasone, reference compound]
[1]; 0.05 mg/dose (0.1% dexamethasone suspension or 1 mg/g BOL-303242-X), right eye four times daily, Days 1-31
  Mortality (rabbits that died or were euthanized between Days 11 and 33): Six of ten
[1]; [7]
  Day of Death (day euthanized or found dead): 25 (2×) and 27 (2×) and 23 and 13
  Recorded Notes on death: Euthanized. Very sick/poor health; left (untreated) eye; also recorded: Euthanized due to severe profuse hemorrhagic diarrhea; also recorded: Found dead. No rigor mortis present
[1]; dexamethasone suspension 0.05 mg/dose four times daily up to 31 days
  Mortality rate: 6 deaths per 10 rabbits
[2]; 0.1% formulation
  Clinical Score −5 min: 0 and 1
  Clinical Score +115 min: 1 and 3
  Clinical Score −180 min: 0
[2]; [8]
  Percentage of eyes with clinical score 1: 75%
  Percentage of eyes with clinical score 3: 25%
[2]; [9]
  Percentage of eyes with clinical score 0: 75%
  Percentage of eyes with clinical score 1: 25%
[2]; 0.1% formulation, −180 min (basal), N=8 eyes
  Percentage of eyes with clinical score 0: 100%
Pupillary diameter; 0.1% formulation
  Pupillary diameter T2: −5 min: 5.5 mm and 6.5 mm and 6.0 mm and 7.0 mm and 7.5 mm
  Pupillary diameter T3: +115 min: 5.5 mm and 6.0 mm and 4.5 mm and 5.0 mm and 6.5 mm
  Pupillary diameter T1: −180 min: 6.0 mm and 7.0 mm and 5.5 mm and 6.5 mm
  Mean (mm) Δ(T3 − T1) of pupillary diameter: −0.8 mm
Rabbit eyes; [10]
  Conjunctival congestion Score: 1
  Ophthalmic Observation (Slit-Lamp): AN
Rabbit eyes; four times daily up to 31 days, BOL-303242-X 0.05, 0.25, or 0.5 mg/dose, dexamethasone 0.05 mg/dose
  Ophthalmic observation associated with unilateral topical instillation: sporadic mild conjunctival congestion
[3]; 0.1% Dex
  MPO activity in iris-ciliary body: 1.32 Unit/g
[3]; 0.1% formulation
  MPO activity in iris-ciliary body, Mean: 0.618 MPO Unit/g
[4]; 0.1% dexamethasone (Group A), on several days, one or both eyes, p<0.05
  Mean IOP of the group compared with corresponding eyes of other groups: significantly higher
[4]; left and right eyes, dexamethasone 0.1% (Group A), BOL-303242-X 10, 5, 1 mg/g (Groups B-D), four times daily
  Course of mean IOP after treatment began: increased sharply
[5]; 0.1% formulation
  PGE2 level in aqueous humor, Mean: 2.263 ng/mL
[6]; 0.1% formulation
  Protein level in aqueous humor, Mean: 33.457 mg/mL
  Protein level in aqueous humor, raw data: 31.31 mg/mL and 31.81 mg/mL and 35.95 mg/mL and 37.15 mg/mL and 32.12 mg/mL and 32.40 mg/mL

## CC(C(=O)O)c1ccc(-c2ccccc2)c(F)c1 (stereo not shown) [F, flurbiprofen]
[2]; 0.03% formulation
  Clinical Score −5 min: 0
  Clinical Score +115 min: 2
  Clinical Score −180 min: 0
[2]; 0.03% formulation, +115 min, N=8 eyes
  Percentage of eyes with clinical score 2: 100%
[2]; 0.03% formulation, −5 min, N=8 eyes
  Percentage of eyes with clinical score 0: 100%
[2]; 0.03% formulation, −180 min (basal), N=8 eyes
  Percentage of eyes with clinical score 0: 100%
Pupillary diameter; 0.03% formulation
  Pupillary diameter T2: −5 min: 6.0 mm and 6.5 mm and 7.0 mm and 5.5 mm
  Pupillary diameter T3: +115 min: 4.0 mm and 3.5 mm and 5.5 mm and 5.0 mm and 4.5 mm and 6.0 mm
  Pupillary diameter T1: −180 min: 5.0 mm and 7.0 mm and 6.0 mm and 5.5 mm
  Mean (mm) Δ(T3 − T1) of pupillary diameter: −0.9 mm
[3]; 0.03% F
  MPO activity in iris-ciliary body: 1.27 Unit/g
[3]; 0.03% formulation
  MPO activity in iris-ciliary body, Mean: 0.906 MPO Unit/g
[5]; 0.03% formulation, p<0.05
  PGE2 in aqueous humor, statistical significance versus CTR: statistically significant versus CTR
[5]; 0.03% formulation
  PGE2 level in aqueous humor, Mean: 1.189 ng/mL
[6]; 0.03% formulation, p<0.001
  Protein in aqueous humor, statistical significance vs CTR: statistical significance
[6]; 0.03% formulation
  Protein level in aqueous humor, Mean: 20.910 mg/mL
  Protein level in aqueous humor, raw data: 20.78 mg/mL and 28.80 mg/mL and 23.41 mg/mL and 20.21 mg/mL and 17.53 mg/mL and 15.12 mg/mL and 20.52 mg/mL
